Patent publication US20110257210A1, “BENZIMIDAZOLE DERIVATIVES AND THEIR USE FOR MODULATING THE GABAA RECEPTOR COMPLEX” (NEUROSEARCH A/S, priority 2008, published 2011)

Target: benzodiazepine binding site on GABAA receptors (rat cerebral cortex membranes)
Assay: In vitro inhibition of 3H-flunitrazepam (3H-FNM) binding
Details: inhibition of specific binding of 3H-FNM (1 nM), cerebral cortex membranes from male Wistar rats, 40 min at 2° C.
Method: In Vitro Inhibition of ^3H-flunitrazepam (^3H-FNM) Binding
The GABA recognition site and the benzodiazepine modulatory unit can selectively be labelled with ^3H-flunitrazepam.
Preparations are performed at 0-4° C. unless otherwise indicated. Cerebral cortex from male Wistar rats (150-200 g) is homogenised for 5-10 sec in 20 ml Tris-HCl (30 mM, pH 7.4) using an Ultra-Turrax homogeniser. The suspension is centrifuged at 27,000×g for 15 min and the pellet is washed three times with buffer (centrifuged at 27,000×g for 10 min). The washed pellet is homogenized in 20 ml of buffer and incubated on a water bath (37° C.) for 30 min to remove endogenous GABA and then centrifuged for 10 min at 27,000×g. The pellet is then homogenized in buffer and centrifuged for 10 min at 27,000×g. The final pellet is resuspended in 30 ml buffer and the preparation is frozen and stored at −20° C.
The membrane preparation is thawed and centrifuged at 2° C. for 10 min at 27,000×g. The pellet is washed twice with 20 ml 50 mM Tris-citrate, pH 7.1 using an Ultra-Turrax homogeniser and centrifuged for 10 min at 27,000×g. The final pellet is resuspended in 50 mM Tris-citrate, pH 7.1 (500 ml buffer per g of original tissue), and then used for binding assays. Aliquots of 0.5 ml tissue are added to 25 μl of test solution and 25 μl of ^3H-FNM (1 nM, final concentration), mixed and incubated for 40 min at 2° C. Non-specific binding is determined using Clonazepam (1 μM, final concentration). After incubation the samples are added 5 ml of ice-cold buffer and poured directly onto Whatman GF/C glass fibre filters under suction and immediately washed with 5 ml ice-cold buffer. The amount of radioactivity on the filters is determined by conventional liquid scintillation counting. Specific binding is total binding minus non-specific binding.
25-75% inhibition of specific binding must be obtained, before calculation of an IC50.
The test value will be given as IC50 (the concentration (μM) of the test substance which inhibits the specific binding of ^3H-FNM by 50%).
Co is specific binding in control assays, and
CX is the specific binding in the test assay.
(The calculations assume normal mass-action kinetics).

IC50	SMILES
1.9 nM	CC(C)(O)c1ccc2c(c1)ncn2-c1ccc(F)c(-c2cccnc2Cl)c1 [Compound 7b, 2-{1-[3-(2-Chloro-pyridin-3-yl)-4-fluoro-phenyl]-1H-benzoimidazol-5-yl}-propan-2-ol]
2.5 nM	CC(C)(O)c1ccc2c(c1)ncn2-c1ccc(F)c(-c2ccnc(Cl)c2F)c1 [Compound 7f, 2-{1-[3-(2-Chloro-3-fluoro-pyridin-4-yl)-4-fluoro-phenyl]-1H-benzoimidazol-5-yl}-propan-2-ol]
0.64 nM	CC(C)(O)c1ccc2c(c1)ncn2-c1ccc(F)c(-c2ccncc2Cl)c1 [Compound 7c, 2-{1-[3-(3-Chloro-pyridin-4-yl)-4-fluoro-phenyl]-1H-benzoimidazol-5-yl}-propan-2-ol]

Further lines, the compound ahead of its results:

SMILES	IC50
CC(C)(O)c1ccc2c(c1)ncn2-c1ccc(F)c(-c2ccncc2F)c1 [Compound 7e, 2-{1-[4-Fluoro-3-(3-fluoro-pyridin-4-yl)-phenyl]-1H-benzoimidazol-5-yl}-propan-2-ol]	1.1 nM
CC(C)(O)c1ccc2c(c1)ncn2-c1ccc(F)c(-c2cncc(C#N)c2)c1 [Compound 7g, 5-{2-Fluoro-5-[5-(1-hydroxy-1-methyl-ethyl)-benzoimidazol-1-yl-]-phenyl}-nicotinonitrile]	99 nM
COc1ncccc1-c1cc(-n2cnc3cc(C(C)(C)O)ccc32)ccc1F [Compound 7d, 2-{1-[4-Fluoro-3-(2-methoxy-pyridin-3-yl)-phenyl]-1H-benzoimidazol-5-yl}-propan-2-ol]	0.29 nM
CC(C)(O)c1ccc2c(c1)ncn2-c1ccc(F)c(-c2cccnc2F)c1 [Compound 7a, 2-{1-[4-Fluoro-3-(2-fluoro-pyridin-3-yl)-phenyl]-1H-benzoimidazol-5-yl}-propan-2-ol]	1.6 nM
COc1ncc(-c2cc(-n3cnc4cc(C(C)(C)O)ccc43)ccc2F)c(OC)n1 [Compound 7h, 2-{1-[3-(2,4-Dimethoxy-pyrimidin-5-yl)-4-fluoro-phenyl]-1H-benzoimidazol-5-yl}-propan-2-ol]	0.77 nM
CC(C)(O)c1ccc2c(c1)ncn2-c1ccc(F)c(-c2ccncc2C#N)c1 [Compound 7i, 4-{2-Fluoro-5-[5-(1-hydroxy-1-methyl-ethyl)-benzoimidazol-1-yl]-phenyl}-nicotinonitrile]	1.1 nM
